In patent EP2181589A1, “Neurotoxic sterol glycosides” (Shaw, Christopher Ariel, priority 2008, dated 2010):
Entries after “also recorded” stand apart in the source; their conditions may differ. Marks after values point to notes of the source that are not given here.

Assays:
Assay type in all cases: in vivo, CD-1 mice
[1] = tested on: Heat shock protein-70; assay: Heat shock protein-70 immunofluorescence; conditions: for Anti-Hsp-70 (VHLsc) / Anti-Hsp-70 (VHTsc): SG-fed vs control; for Anti-Hsp-70 (VHLsc): ventral horn lumbar spinal cord; for Anti-Hsp-70 (VHTsc): ventral horn thoracic spinal cord
Experimental: (§1) The synthetic SG was mixed with finely ground Purina Chow mouse pellets (Mouse Diet™, Purina) to create the experimental pellets with a SG content of 1000 µg per pellet. Dry materials were blended with a sterile silicon spatula. For every 5 g of standard feed, 2.5 mL of doubly-distilled water (dd)H2O was added and the dough was kneaded and round up into pellets. A single sterol glucoside containing pellet was placed in the feeding tray each morning before the addition of regular mouse chow (ad libitum). All experimental pellets were entirely consumed by the mice each day. Control mice were fed standard mouse chow pellets of identical weight with no additives. SG feeding was conducted daily for 15 weeks and mice were behaviorally monitored until sacrifice at 35 weeks (time point 1) or 52 weeks (time point 2).
Tissue-mounted slides were processed for fluorescence microscopy as follows: Sections were rinsed in coplin jars for 45 minutes at room temperature (RT) in three changes of PBS. Sections were then incubated at RT for 30 minutes in a blocking permeabilization solution made of 5% normal goat serum (NGS), 5% normal rabbit serum (NRS) or 5% BlokHen II (Aves Labs, Inc., Tigard, OR), 0.05% Triton X-100 and PBS. Subsequently, the blocking solution was tipped off and the slides were rinsed in PBS for 2 minutes. Sections were then incubated overnight in a humidified chamber at 4°C with a PBS buffered solution that contained 1% NGS or 1% NRS, 1% bovine serum albumin (BSA) and one of the following primary antibodies: (a) rabbit anti-human/mouse ATF-3 (H-90) IgG (polyclonal, 1:500; Santa Cruz Biotechnology, Inc., Santa Cruz, CA), (b) anti-activated caspase-3 IgG (monoclonal, 1:250; Chemicon International, Temecula, CA) (see FIGURE 9), (c) goat antihuman/ mouse choline acetyl transferase (ChAT) IgG (polyclonal, 1:100; Chemicon International, Temecula, CA) (see FIGURE 6), (d) rabbit anti-mouse glial fibrillary acidic protein IgG (polyclonal, 1:250; GeneTex Inc., San Antonio, TX) (see FIGURE 7), (e) rabbit antihuman/ mouse ionized calcium binding adaptor molecule 1 (IBA-1) IgG (polyclonal, 1:500; Wako Pure Chemical Industries, Ltd, Richmond, VA), (f) mouse anti-human/mouse clone AT8 PHF-1 Tau (monoclonal, 1:200; Pierce Biotechnology Inc., Rockford, IL), (g) rabbit anti-human/mouse TAR DNA-binding protein 43 (TDP43) (1:100; ProteinTech Group Inc., Chicago, IL) (See FIGURE 14), (h) chicken anti-human/mouse β-tubulin 3 (TuJ1 antigen) (polyclonal, 1:100, Aves Labs, Inc., Tigard, OR), (i) rabbit anti-mouse tyrosine hydroxylase (polyclonal, 1:500, Chemicon International, Temecula, CA or polyclonal 1:1000, Affinity BioReagents, Golden, CO) (FIGURE 10), (j) rabbit anti human/mouse anti-pJunser73 IgG (polyclonal, 1:200; Chemicon International, Temecula, CA), (k) rabbit anti human/mouse anti-HSP-70 IgG (polyclonal, 1:200; Chemicon International, Temecula, CA), or (1) rabbit anti human/mouse anti-HSP-25 IgG (polyclonal, 1:100; Chemicon International, Temecula, CA). In each experiment, additional slides were incubated with the primary antibody and the secondary antibody omitted or with secondary antibody and primary antibody omitted to test for nonspecific staining. Where appropriate, positive control slides (Alzheimer's disease patient entorhinal cortex, obtained from Drs. Claudia Schwab and Patrick McGeer of the Kinsmen Laboratory, University of British Columbia, Vancouver, BC, Canada) were also processed as above for comparison. Following overnight incubation with the primary antibody, slides were rinsed for 45 minutes at RT in three changes of PBS. […]

[2] = Body weights of SG-fed animals; conditions: SG-fed vs control, over the study
Experimental: Five-month old male CD-1 mice (30.1-35.7 g, 7.5 cm - 8.8 cm) were purchased from Charles River (Wilmington, MA). Adult mice were chosen to mimic the mean age of onset of ALS-PDC (Kurland, 1988; Kurland et al., 1994). Thirty mice for the SG study were randomly divided into 2 groups (14 control and 16 experimental animals). All animals were housed singly in a virus-free barrier facility in a room maintained at 22°C under a 12 hour light/dark cycle. The mice were provided ad libitum access to food and water.
as §1

[3] = tested on: Cholinergic motor neurons in the spinal cord; assay: Choline acetyl transferase immunofluorescence; conditions: SG-fed vs control; for Cholinergic neurons: ventral horn of lumbar spinal cord
Experimental: as §1
(§2) Tissue-mounted slides were processed for fluorescence microscopy as follows: Sections were rinsed in coplin jars for 45 minutes at room temperature (RT) in three changes of PBS. Sections were then incubated at RT for 30 minutes in a blocking permeabilization solution made of 5% normal goat serum (NGS), 5% normal rabbit serum (NRS) or 5% BlokHen II (Aves Labs, Inc., Tigard, OR), 0.05% Triton X-100 and PBS. Subsequently, the blocking solution was tipped off and the slides were rinsed in PBS for 2 minutes. […]

[4] = tested on: Dopaminergic cells Tyrosine Hydroxylase; assay: Tyrosine hydroxylase immunohistochemistry; conditions: SG-fed animals, either time-point
Experimental: as §1, §2

[5] = tested on: Cytochrome c oxidase; assay: Cytochrome c oxidase histochemistry; conditions: for Cytochrome c oxidase activity: SG-fed vs control
Experimental: as §1
Tissue-mounted slides were processed for […] in a manner adapted from Seligman et al. (1968) and Wong-Riley (1979). Sections were rinsed in coplin jars for 15 minutes at RT in three changes of PBS and subsequently incubated with a media comprised of 50 mg of 3,3'-diaminobenzidine tetrahydrochloride (DAB) (DAB substrate system, Vector Laboratories, Burlingame, CA, USA), 90 mL 0.1M phosphate buffer, 20 mg cytochrome c (type III, Sigma-Aldrich Co., Oakville, ON, Canada), and 4 g of sucrose in a dish submerged in a water bath maintained at 37°C in the dark for 2 hours. The sections were monitored closely for the brown reaction product to appear within the tissue. Once a medium-brown color was achieved, slides were removed from the incubation media and rinsed for 15 minutes in three changes of PBS to stop the reaction. This was followed with a 2 minutes rinse in distilled water to remove residue from the slides. The slides were dried under a fume hood and cover-slipped with Entellen (Merck, Darmstadt, Germany).
The numbers of immunoreactive somata or inclusions were counted across the ventral horn of the spinal cord, across brain hemispheres, or per dorsal or ventral root with the 40x objective lens in a 600 µm / 600 µm area within region perimeters defined by a mouse brain atlas (2001). For each animal, eight cross-sections per spinal cord or brain region were studied. […] For quantification of the level of mitochondrial activity (cytochrome c oxidase labelling) in the lumbar spinal cord or tyrosine hydroxylase immunoreactivity in the substantia nigra pars compacta and striatal sections, images captured using the Motic B5 Professional Series 3.0 microscope (Motic Instruments Inc., Richmond, ON) and analyzed using Motic B5 Professional, Motic Images Advanced 3.0 (Motic Instruments Inc., Richmond, ON) were scanned into a TIFF format file and analysed using the NIH Image J 1.37 software to measure density levels of antibody labelling. […]

[6] = SG-fed group over time, 35 to 52 wk

Structure (SMILES): CCC(C=CC(C)C1CCC2C3CC=C4CC(OC5OC(CO)C(O)C(O)C5O)CCC4(C)C3CCC12C)C(C)C (stereo not shown) [SG]
- Anti-Hsp-70 Lsc [1, 6]: Anti-Hsp-70 Lsc (SG-fed group over time) (ns, p=0.1223)
- Anti-Hsp-70 Tsc [1, 6]: Anti-Hsp-70 Tsc (SG-fed group over time) (ns, p=0.8319)
- Anti-Hsp-70 (VHLsc) ([1]; time-point 1, 35 wk): Anti-Hsp-70: +1036%***
- Anti-Hsp-70 (VHTsc) ([1]; time-point 1, 35 wk): Anti-Hsp-70: (ns, p=0.9697)
- Anti-Hsp-70 (VHLsc) ([1]; time-point 2, 52 wk): Anti-Hsp-70: +425%* (VHLsc)
- Anti-Hsp-70 (VHTsc) ([1]; time-point 2, 52 wk): Anti-Hsp-70: (ns, p=0.2793)
- Body weights [2]: not significantly different; also recorded: normal weight gain
- fewer cholinergic neurons ([3]; 35 weeks): 18%
- fewer cholinergic neurons ([3]; 52 weeks): 32%
- Cholinergic neurons ([3]; time-point 1, 35 wk): Cholinergic neurons (-18%)
- Cholinergic neurons ([3]; time-point 2, 52 wk): Cholinergic neurons (-32%)
- decrease in TH optical density, striata [4]: not significant
- Cytochrome c oxidase Activity, Optical density [5, 6]: Optical density (SG-fed group over time): -36%**
- Cytochrome c oxidase activity ([5]; 35 or 52 weeks): no significant differences
- Cytochrome c oxidase activity ([5]; time-point 1, 35 wk): (ns)
- Cytochrome c oxidase activity ([5]; time-point 2, 52 wk): (ns)
